What was measured:
miR-451 [1] = assay: Zebrafish embryo erythrocyte accumulation with PTU, O-dianisidine hemoglobin stain; format: in vivo; settings: for hemoglobinized cells / blood accumulation (O-dianisidine staining): 2-day-old embryos, lateral view, tail region, upon drug treatment
Protocol: Zebrafish embryos were incubated with different drug candidates predicted by sChemNET in combination with phenyl-thiourea (PTU), a chemical known to induce anemia due to oxidative stress when miR-451 activity is impaired, but not in wild-type embryos. 48 hours after fertilization, embryos display robust blood circulation. At this stage, the accumulation of mature erythrocytes can be easily assessed in transparent embryos using O-dianisidine, a hemoglobin-specific stain. Drugs impairing miR-451 activity induce anemia, while miR-451 boosting drugs will increase erythrocyte production (blood circulation).
Ventral images of 2-day-old embryos stained with O-dianisidine reveal hemoglobinized cells (brown staining).) for wild-type embryos and those treated with docetaxel, β-elemene and α-calcidol. Blood accumulated in the ventral region (ducts of Cuvier).

miR-451 [2] = assay: Effect on levels of miR-451; settings: zebrafish, in vivo
Source text: (§1) Either mechanism of action may be valid, as both pathways will allow the desired output, which complements miRNA activity.
(§2) Dicer processes miR-144, but at the same time is a target of miR-144 (PMID: 32191872), effectively canceling a potential drug-induced increase in miR-144 output.

miR-144 = assay: Effect on levels of miR-144; format: in vivo, Zebrafish; settings: erythrocyte specific miR-144
Source text: as §1, §2

Row | SMILES | hemoglobinized cells / blood accumulation (O-dianisidine staining) (miR-451 [1]) | blood production (miR-451 [1]; zebrafish, in vivo) | levels of miR-451 (miR-451 [2]) | levels of miR-144 (cluster partner of miR-451) (miR-144)
1 | CC(=O)O[C@@]12CO[C@@H]1C[C@H](O)[C@@]1(C)C(=O)[C@H](O)C3=C(C)[C@@H](OC(=O)[C@H](O)[C@@H](NC(=O)OC(C)(C)C)c4ccccc4)C[C@@](O)([C@@H](OC(=O)c4ccccc4)[C@H]21)C3(C)C [docetaxel] | accumulation of the excess of blood in the tail region |  |  | 
2 | C=C[C@]1(C)CC[C@@H](C(=C)C)C[C@H]1C(=C)C [β-elemene] | accumulation of the excess of blood in the tail region |  |  | 
3 | C=C1/C(=C\C=C2/CCC[C@]3(C)[C@@H]([C@H](C)CCCC(C)C)CC[C@@H]23)C[C@@H](O)C[C@@H]1O [α-Calcidol] | accumulation of the excess of blood in the tail region | boosts blood production | does not directly affect the levels | does not directly affect the levels
